Experiments:
Format in all cases: in vivo
[1] = test system: blackgrass (Alopecurus myosuroides); assay: Test A1 preemergence, blackgrass
Description: (§1) Seeds of plant species selected from, blackgrass (Alopecurus myosuroides), corn (Zea mays), Foxtail, Giant (giant foxtail, Setaria faberi), goosegrass (Eleusine indica), kochia (Bassia scoparia), Oat, Wild (wild oat, Avena fatua), Pigweed, Palmer (palmer amaranth, palmer pigweed, Amaranthus palmeri), ragweed (common ragweed, Ambrosia artemisiifolia), Ryegrass, Italian (Italian ryegrass, Lolium multiflorum), soybean (Glycine max), and wheat (Triticum aestivum) were planted into a blend of loam soil and sand and treated preemergence with a directed soil spray using test chemicals formulated in a non-phytotoxic solvent mixture which included a surfactant. At the same time, plants selected from these crop and weed species and also galium (catchweed bedstraw, Galium aparine) and horseweed (Erigeron canadensis) were planted in pots containing the same blend of loam soil and sand and treated with postemergence applications of test chemicals formulated in the same manner. Plants ranged in height from 2 to 10 cm and were in the one- to two-leaf stage for the postemergence treatment. […] A dash (-) response means no test result.

corn (Zea mays) [2] = assay: Test A1 preemergence, corn
Description: as §1

[3] = test system: Foxtail, Giant (giant foxtail, Setaria faberi); assay: Test A1 preemergence, Foxtail, Giant
Description: as §1

[4] = test system: goosegrass (Eleusine indica); assay: Test A1 preemergence, goosegrass
Description: as §1

kochia (Bassia scoparia) [5] = assay: Test A1 preemergence, kochia
Description: as §1

[6] = test system: Oat, Wild (wild oat, Avena fatua); assay: Test A1 preemergence, Oat, Wild
Description: as §1

[7] = test system: Pigweed, Palmer (palmer amaranth, palmer pigweed, Amaranthus palmeri); assay: Test A1 preemergence, Pigweed, Palmer
Description: as §1

[8] = test system: ragweed (common ragweed, Ambrosia artemisiifolia); assay: Test A1 preemergence, ragweed
Description: as §1

[9] = test system: Ryegrass, Italian (Italian ryegrass, Lolium multiflorum); assay: Test A1 preemergence, Ryegrass, Italian
Description: as §1

soybean (Glycine max) [10] = assay: Test A1 preemergence, soybean
Description: as §1

[11] = test system: wheat (Triticum aestivum); assay: Test A1 preemergence, wheat
Description: as §1

[12] = test system: blackgrass (Alopecurus myosuroides); assay: Test A1 postemergence, blackgrass; conditions: 0 to 100 scale (0 no effect, 100 complete control); for Plant response rating, Blackgrass: Postemergence
Description: as §1

corn (Zea mays) [13] = assay: Test A1 postemergence, corn; conditions: for Plant response rating, Corn: Postemergence
Description: as §1

[14] = test system: Foxtail, Giant (giant foxtail, Setaria faberi); assay: Test A1 postemergence, Foxtail, Giant; conditions: for Foxtail, Giant plant response rating: 31 g ai/ha, postemergence; for Plant response rating, Foxtail, Giant: Postemergence, 125 g ai/ha
Description: as §1

[15] = test system: goosegrass (Eleusine indica); assay: Test A1 postemergence, goosegrass; conditions: for Goosegrass plant response rating: 31 g ai/ha, postemergence; for Plant response rating, Goosegrass: Postemergence, 125 g ai/ha
Description: as §1

kochia (Bassia scoparia) [16] = assay: Test A1 postemergence, kochia; conditions: for Kochia plant response rating: 31 g ai/ha, postemergence; for Plant response rating, Kochia: Postemergence, 125 g ai/ha
Description: as §1

[17] = test system: Oat, Wild (wild oat, Avena fatua); assay: Test A1 postemergence, Oat, Wild; conditions: for Oat, Wild plant response rating: 31 g ai/ha, postemergence; for Plant response rating, Oat, Wild: Postemergence, 125 g ai/ha
Description: as §1

[18] = test system: Pigweed, Palmer (palmer amaranth, palmer pigweed, Amaranthus palmeri); assay: Test A1 postemergence, Pigweed, Palmer; conditions: for Pigweed, Palmer plant response rating: 31 g ai/ha, postemergence; for Plant response rating, Pigweed, Palmer: Postemergence, 125 g ai/ha
Description: as §1

[19] = test system: ragweed (common ragweed, Ambrosia artemisiifolia); assay: Test A1 postemergence, ragweed; conditions: for Ragweed plant response rating: 31 g ai/ha, postemergence; for Plant response rating, Ragweed: Postemergence, 125 g ai/ha
Description: as §1

[20] = test system: Ryegrass, Italian (Italian ryegrass, Lolium multiflorum); assay: Test A1 postemergence, Ryegrass, Italian; conditions: for Ryegrass, Italian plant response rating: 31 g ai/ha, postemergence; for Plant response rating, Ryegrass, Italian: Postemergence, 125 g ai/ha
Description: as §1

soybean (Glycine max) [21] = assay: Test A1 postemergence, soybean; conditions: for Soybean plant response rating: 31 g ai/ha, postemergence; for Plant response rating, Soybean: Postemergence, 125 g ai/ha
Description: as §1

[22] = test system: wheat (Triticum aestivum); assay: Test A1 postemergence, wheat; conditions: for Wheat plant response rating: 31 g ai/ha, postemergence; for Plant response rating, Wheat: Postemergence, 125 g ai/ha
Description: as §1

[23] = test system: galium (catchweed bedstraw, Galium aparine); assay: Test A1 postemergence, galium; conditions: for Galium plant response rating: 31 g ai/ha, postemergence; for Plant response rating, Galium: Postemergence, 125 g ai/ha
Description: as §1

[24] = test system: barnyardgrass (Echinochloa crus-galli); assay: Test B1 flooded paddy test, barnyardgrass; conditions: 250 g ai/ha, Flood, applied to paddy water, 2-leaf stage, visually evaluated after 10 to 14 days
Description: (§2) A dash (-) response means no test result.

[25] = test system: ducksalad (Heteranthera limosa); assay: Test B1 flooded paddy test, ducksalad; conditions: 250 g ai/ha, Flood, applied to paddy water, 2-leaf stage, visually evaluated after 10 to 14 days
Description: as §2

rice (Oryza sativa) = assay: Test B1 flooded paddy test, rice; conditions: 250 g ai/ha, Flood, applied to paddy water, 2-leaf stage, visually evaluated after 10 to 14 days
Description: as §2

[26] = test system: horseweed (Erigeron canadensis); assay: Test A1 postemergence, horseweed; conditions: 0 to 100 scale (0 no effect, 100 complete control)
Description: as §1

[27] = 31 g ai/ha, 0 to 100 scale (0 no effect, 100 complete control)
[28] = 125 g ai/ha, 0 to 100 scale, 0 no effect, 100 complete control
[29] = 0 to 100 scale (0 no effect, 100 complete control)
[30] = 0 to 100 scale (0 no effect, 100 complete control), 10 days

C#CCN(C)C(=O)c1cc(NS(=O)(=O)C(F)(F)F)c(C)c(C)c1C [Compound 368]
Plant response rating, Blackgrass [1, 27]: 10
Plant response rating, Blackgrass [1, 28]: 40
Plant response rating, Corn (corn (Zea mays) [2]; [27]): 0
Plant response rating, Corn (corn (Zea mays) [2]; [28]): 90
Plant response rating, Foxtail, Giant [3, 27]: 90
Plant response rating, Foxtail, Giant [3, 28]: 100
Plant response rating, Goosegrass [4, 27]: 70
Plant response rating, Goosegrass [4, 28]: 90
Plant response rating, Kochia (kochia (Bassia scoparia) [5]; [27]): 20
Plant response rating, Kochia (kochia (Bassia scoparia) [5]; [28]): 90
Plant response rating, Oat, Wild [6, 27]: 10
Plant response rating, Oat, Wild [6, 28]: 20
Plant response rating, Pigweed, Palmer [7, 27]: 100
Plant response rating, Pigweed, Palmer [7, 28]: 100
Plant response rating, Ragweed [8, 27]: 50
Plant response rating, Ragweed [8, 28]: 80
Plant response rating, Ryegrass, Italian [9, 27]: 50
Plant response rating, Ryegrass, Italian [9, 28]: 100
Plant response rating, Soybean (soybean (Glycine max) [10]; [27]): 90
Plant response rating, Soybean (soybean (Glycine max) [10]; [28]): 100
Plant response rating, Wheat [11, 27]: 20
Plant response rating, Wheat [11, 28]: 100
Plant response rating, Blackgrass ([12]; 31 g ai/ha, 10 days): 0
Plant response rating, Blackgrass ([12]; 125 g ai/ha): 10
Plant response rating, Corn (corn (Zea mays) [13]; 31 g ai/ha, 0 to 100 scale (0 no effect, 100 complete control), 10 days): 40
Plant response rating, Corn (corn (Zea mays) [13]; 125 g ai/ha, 0 to 100 scale): 90
Foxtail, Giant plant response rating [14, 29]: 80
Plant response rating, Foxtail, Giant ([14]; 0 to 100 scale): 90
Goosegrass plant response rating [15, 29]: 30
Plant response rating, Goosegrass ([15]; 0 to 100 scale): 90
Kochia plant response rating (kochia (Bassia scoparia) [16]; [29]): 60
Plant response rating, Kochia (kochia (Bassia scoparia) [16]; 0 to 100 scale): 80
Oat, Wild plant response rating [17, 29]: 0
Plant response rating, Oat, Wild ([17]; 0 to 100 scale): 10
Pigweed, Palmer plant response rating [18, 29]: 20
Plant response rating, Pigweed, Palmer ([18]; 0 to 100 scale): 40
Ragweed plant response rating [19, 29]: 50
Plant response rating, Ragweed ([19]; 0 to 100 scale): 80
Ryegrass, Italian plant response rating [20, 29]: 20
Plant response rating, Ryegrass, Italian ([20]; 0 to 100 scale): 90
Soybean plant response rating (soybean (Glycine max) [21]; [29]): 70
Plant response rating, Soybean (soybean (Glycine max) [21]; 0 to 100 scale): 90
Wheat plant response rating [22, 29]: 20
Plant response rating, Wheat ([22]; 0 to 100 scale): 60
Galium plant response rating [23, 29]: 70
Plant response rating, Galium ([23]; 0 to 100 scale): 100
Plant response rating, Barnyardgrass (0 to 100 scale, 0 is no effect, 100 is complete control) [24]: 70
Plant response rating, Ducksalad (0 to 100 scale, 0 is no effect, 100 is complete control) [25]: 60
Plant response rating, Rice (0 to 100 scale, 0 is no effect, 100 is complete control) (rice (Oryza sativa)): 0

Cc1cc(C)c(C2=NOC(C(C)C)C2)cc1NS(=O)(=O)C(F)(F)F (centres unmarked) [Compound 381]
Plant response rating, Corn (corn (Zea mays) [2]; [27]): 0
Plant response rating, Corn (corn (Zea mays) [2]; [28]): 70
Plant response rating, Foxtail, Giant [3, 27]: 20
Plant response rating, Foxtail, Giant [3, 28]: 100
Plant response rating, Goosegrass [4, 27]: 30
Plant response rating, Goosegrass [4, 28]: 100
Plant response rating, Kochia (kochia (Bassia scoparia) [5]; [27]): 0
Plant response rating, Kochia (kochia (Bassia scoparia) [5]; [28]): 60
Plant response rating, Oat, Wild [6, 27]: 50
Plant response rating, Oat, Wild [6, 28]: 80
Plant response rating, Pigweed, Palmer [7, 27]: 30
Plant response rating, Pigweed, Palmer [7, 28]: 90
Plant response rating, Ragweed [8, 27]: 0
Plant response rating, Ragweed [8, 28]: 0
Plant response rating, Ryegrass, Italian [9, 27]: 50
Plant response rating, Ryegrass, Italian [9, 28]: 90
Plant response rating, Soybean (soybean (Glycine max) [10]; [27]): 0
Plant response rating, Soybean (soybean (Glycine max) [10]; [28]): 50
Plant response rating, Wheat [11, 27]: 40
Plant response rating, Wheat [11, 28]: 90
Blackgrass plant response rating ([12]; 31 g ai/ha, postemergence): 0
Plant response rating, Blackgrass ([12]; 125 g ai/ha, 10 days): 70
Corn plant response rating (corn (Zea mays) [13]; 31 g ai/ha, postemergence, 0 to 100 scale (0 no effect, 100 complete control)): 0
Plant response rating, Corn (corn (Zea mays) [13]; 125 g ai/ha, 0 to 100 scale (0 no effect, 100 complete control), 10 days): 20
Foxtail, Giant plant response rating [14, 29]: 0
Plant response rating, Foxtail, Giant [14, 30]: 50
Goosegrass plant response rating [15, 29]: 0
Plant response rating, Goosegrass [15, 30]: 50
Kochia plant response rating (kochia (Bassia scoparia) [16]; [29]): 0
Plant response rating, Kochia (kochia (Bassia scoparia) [16]; [30]): 20
Oat, Wild plant response rating [17, 29]: 0
Plant response rating, Oat, Wild [17, 30]: 20
Pigweed, Palmer plant response rating [18, 29]: 0
Plant response rating, Pigweed, Palmer [18, 30]: 10
Ragweed plant response rating [19, 29]: 0
Plant response rating, Ragweed [19, 30]: 50
Ryegrass, Italian plant response rating [20, 29]: 0
Plant response rating, Ryegrass, Italian [20, 30]: 0
Soybean plant response rating (soybean (Glycine max) [21]; [29]): 50
Plant response rating, Soybean (soybean (Glycine max) [21]; [30]): 60
Wheat plant response rating [22, 29]: 20
Plant response rating, Wheat [22, 30]: 70
Galium plant response rating [23, 29]: 0
Plant response rating, Galium [23, 30]: 50
Horseweed plant response rating ([26]; 31 g ai/ha, postemergence): 0
Plant response rating, Horseweed ([26]; Postemergence, 125 g ai/ha, 10 days): 30
Plant response rating, Barnyardgrass (0 to 100 scale, 0 is no effect, 100 is complete control) [24]: 70
Plant response rating, Ducksalad (0 to 100 scale, 0 is no effect, 100 is complete control) [25]: 50
Plant response rating, Rice (0 to 100 scale, 0 is no effect, 100 is complete control) (rice (Oryza sativa)): 0

From patent US20230278972A1, “SUBSTITUTED HALOALKYL SULFONANILIDE HERBICIDES” (FMC Corporation, priority 2020, published 2023)
